Measurements from the supplement of paper PMC10733146.

How the values were obtained:
Assay in all cases: viability relative to DMSO control (fraction); higher = less drug effect (more viable cells)
Conditions in all cases: 48 h
[1] = test system: primary T-PLL patient cells (S008)
Method in brief: (§1)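 In 384-well plates with compounds pre-plated at five concentrations (one well per concentration), primary mononuclear tumour cells were plated at 4 × 10^4 cells per well. The cells came from blood or bone marrow by Ficoll isolation or from processed lymph node, and were used fresh or cryopreserved. Culture ran for 48 h at 37 °C and 5% CO2 in RPMI-1640 containing penicillin/streptomycin, L-glutamine and human serum. Viability was read as CellTiter-Glo luminescence, normalised to the median of 16 inner DMSO wells.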

[2] = test system: primary AML patient cells (S055)
Method in brief: as §1

[3] = test system: primary AML patient cells (S091)
Method in brief: as §1

[4] = test system: primary AML patient cells (S019)
Method in brief: as §1

[5] = test system: primary MCL patient cells (S041)
Method in brief: as §1

[6] = test system: primary DLBCL patient cells (S082)
Method in brief: as §1

[7] = test system: primary AML patient cells (S037)
Method in brief: as §1

[8] = test system: primary AML patient cells (S002)
Method in brief: as §1

[9] = test system: primary AML patient cells (S025)
Method in brief: as §1

[10] = test system: primary AML patient cells (S071)
Method in brief: as §1

[11] = test system: primary AML patient cells (S089)
Method in brief: as §1

[12] = test system: primary AML patient cells (S009)
Method in brief: as §1

[13] = test system: primary AML patient cells (S072)
Method in brief: as §1

[14] = test system: primary AML patient cells (S079)
Method in brief: as §1

CC1(COc2ccc3c(c2)ncn3-c2ccc3cccc(N4CCC(N)CC4)c3n2)COC1 [Crenolanib]
viability ([1]; 0.016 µM): 0.989
viability ([1]; 0.08 µM): 1.04
viability ([1]; 0.4 µM): 1.06
viability ([1]; 2 µM): 1.07
viability ([1]; 10 µM): 0.107
viability ([2]; 0.016 µM): 1.12
viability ([2]; 0.08 µM): 1.08
viability ([2]; 0.4 µM): 1.11
viability ([2]; 2 µM): 1.12
viability ([2]; 10 µM): 0.381
viability ([3]; 0.016 µM): 1.03
viability ([3]; 0.08 µM): 1.32
viability ([3]; 0.4 µM): 1.37
viability ([3]; 2 µM): 1.58
viability ([3]; 10 µM): 0.101
viability ([4]; 0.016 µM): 0.927
viability ([4]; 0.08 µM): 1.17
viability ([4]; 0.4 µM): 0.995
viability ([4]; 2 µM): 1.19
viability ([4]; 10 µM): 0.148
viability ([5]; 0.016 µM): 1.08
viability ([5]; 0.08 µM): 1.07
viability ([5]; 0.4 µM): 0.983
viability ([5]; 2 µM): 0.447
viability ([5]; 10 µM): 0.0254
viability ([6]; 0.016 µM): 1
viability ([6]; 0.08 µM): 1.12
viability ([6]; 0.4 µM): 1.07
viability ([6]; 2 µM): 0.624
viability ([6]; 10 µM): 0.0262
viability ([7]; 0.016 µM): 1.06
viability ([7]; 0.08 µM): 1.09
viability ([7]; 0.4 µM): 1.04
viability ([7]; 2 µM): 0.811
viability ([7]; 10 µM): 0.572
viability ([8]; 0.016 µM): 0.956
viability ([8]; 0.08 µM): 1.13
viability ([8]; 0.4 µM): 1.3
viability ([8]; 2 µM): 1.5
viability ([8]; 10 µM): 0.426
viability ([9]; 0.016 µM): 0.983
viability ([9]; 0.08 µM): 1.12
viability ([9]; 0.4 µM): 1.29
viability ([9]; 2 µM): 1.29
viability ([9]; 10 µM): 0.173
viability ([10]; 0.016 µM): 0.672
viability ([10]; 0.08 µM): 0.712
viability ([10]; 0.4 µM): 0.778
viability ([10]; 2 µM): 1.38
viability ([10]; 10 µM): 0.103
viability ([11]; 0.016 µM): 0.824
viability ([11]; 0.08 µM): 0.612
viability ([11]; 0.4 µM): 0.835
viability ([11]; 2 µM): 0.835
viability ([11]; 10 µM): 0.0567
viability ([12]; 0.016 µM): 0.926
viability ([12]; 0.08 µM): 0.979
viability ([12]; 0.4 µM): 0.921
viability ([12]; 2 µM): 2.2
viability ([12]; 10 µM): 0.301
viability ([13]; 0.016 µM): 0.891
viability ([13]; 0.08 µM): 0.982
viability ([13]; 0.4 µM): 0.793
viability ([13]; 2 µM): 0.742
viability ([13]; 10 µM): 0.0532
viability ([14]; 0.016 µM): 1.02
viability ([14]; 0.08 µM): 1.17
viability ([14]; 0.4 µM): 0.996
viability ([14]; 2 µM): 0.889
viability ([14]; 10 µM): 0.0548

COc1cccc2c1C(=O)c1c(O)c3c(c(O)c1C2=O)C[C@@](O)(C(C)=O)C[C@@H]3O[C@H]1C[C@H](N)[C@H](O)[C@H](C)O1 [Daunorubicin]
viability ([1]; 0.0016 µM): 1.08
viability ([1]; 0.008 µM): 1.09
viability ([1]; 0.04 µM): 0.947
viability ([1]; 0.2 µM): 0.82
viability ([1]; 1 µM): 0.0568
viability ([2]; 0.0016 µM): 1.03
viability ([2]; 0.008 µM): 1.05
viability ([2]; 0.04 µM): 0.991
viability ([2]; 0.2 µM): 0.904
viability ([2]; 1 µM): 0.0407
viability ([3]; 0.0016 µM): 0.998
viability ([3]; 0.008 µM): 0.777
viability ([3]; 0.04 µM): 0.515
viability ([3]; 0.2 µM): 0.558
viability ([3]; 1 µM): 0.0819
viability ([4]; 0.0016 µM): 1.38
viability ([4]; 0.008 µM): 1.33
viability ([4]; 0.04 µM): 0.56
viability ([4]; 0.2 µM): 0.395
viability ([4]; 1 µM): 0.102
viability ([5]; 0.0016 µM): 1.16
viability ([5]; 0.008 µM): 1.11
viability ([5]; 0.04 µM): 0.931
viability ([5]; 0.2 µM): 0.323
viability ([5]; 1 µM): 0.0341
viability ([6]; 0.0016 µM): 1.1
viability ([6]; 0.008 µM): 1.07
viability ([6]; 0.04 µM): 0.838
viability ([6]; 0.2 µM): 0.714
viability ([6]; 1 µM): 0.0208
viability ([7]; 0.0016 µM): 1.06
viability ([7]; 0.008 µM): 1.02
viability ([7]; 0.04 µM): 0.709
viability ([7]; 0.2 µM): 0.565
viability ([7]; 1 µM): 0.368
viability ([8]; 0.0016 µM): 1.04
viability ([8]; 0.008 µM): 0.983
viability ([8]; 0.04 µM): 0.505
viability ([8]; 0.2 µM): 0.323
viability ([8]; 1 µM): 0.241
viability ([9]; 0.0016 µM): 1.03
viability ([9]; 0.008 µM): 0.784
viability ([9]; 0.04 µM): 0.453
viability ([9]; 0.2 µM): 0.431
viability ([9]; 1 µM): 0.0369
viability ([10]; 0.0016 µM): 1.04
viability ([10]; 0.008 µM): 0.272
viability ([10]; 0.04 µM): 0.128
viability ([10]; 0.2 µM): 0.118
viability ([10]; 1 µM): 0.095
viability ([11]; 0.0016 µM): 1.09
viability ([11]; 0.008 µM): 1.16
viability ([11]; 0.04 µM): 0.289
viability ([11]; 0.2 µM): 0.132
viability ([11]; 1 µM): 0.0299
viability ([12]; 0.0016 µM): 1.1
viability ([12]; 0.008 µM): 0.833
viability ([12]; 0.04 µM): 0.722
viability ([12]; 0.2 µM): 0.378
viability ([12]; 1 µM): 0.0702
viability ([13]; 0.0016 µM): 1.18
viability ([13]; 0.008 µM): 1.04
viability ([13]; 0.04 µM): 0.844
viability ([13]; 0.2 µM): 0.589
viability ([13]; 1 µM): 0.0642
viability ([14]; 0.0016 µM): 1.03
viability ([14]; 0.008 µM): 1.08
viability ([14]; 0.04 µM): 0.78
viability ([14]; 0.2 µM): 0.659
viability ([14]; 1 µM): 0.0276
